According to patent US9809587B2, “Pesticidally active heterocyclic derivatives with sulphur containing substituents” (Syngenta Participations AG, priority 2014, dated 2017):

Key:
Assay type in all cases: in vivo
[1] = system: Frankliniella occidentalis (Western Flower Thrips); assay: Frankliniella occidentalis (western flower thrips), sprayed sunflower leaf discs; conditions: foliar, 168 h, application rate of 200 ppm, mixed ages on sunflower leaf discs, 7 days after infestation
Experimental: Example B11: Frankliniella occidentalis (Western Flower Thrips)
Sunflower leaf discs were placed on agar in 24-well microtiter plates and sprayed with aqueous test solutions prepared from […] stock solutions. After drying the leaf discs were infested with a Frankliniella population of mixed ages. The samples were assessed for mortality 7 days after infestation.

[2] = system: Thrips tabaci (Onion Thrips); assay: Thrips tabaci (onion thrips), sprayed sunflower leaf discs; conditions: foliar, 144 h, application rate of 200 ppm, mixed ages on sunflower leaf discs, 6 days after infestation
Experimental: Example B10: Thrips tabaci (Onion Thrips)
Sunflower leaf discs were placed on agar in 24-well microtiter plates and sprayed with aqueous test solutions prepared from 10′000 ppm DMSO stock solutions. After drying the leaf discs were infested with a thrips population of mixed ages. The samples were assessed for mortality 6 days after infestation.

[3] = system: Myzus persicae (Green Peach Aphid); assay: Myzus persicae (green peach aphid), roots of pea seedlings in test solution; conditions: 144 h, test rate of 24 ppm, roots of infested pea seedlings in test solution, 6 days
Experimental: Example B5: Myzus persicae (Green Peach Aphid)
Roots of pea seedlings infested with an aphid population of mixed ages were placed directly in the aqueous test solutions prepared from 10′000 DMSO stock solutions. The samples were assessed for mortality 6 days after placing seedlings in test solutions.

[4] = system: Spodoptera littoralis (Egyqptian Cotton Leaf Worm); assay: Spodoptera littoralis (Egyptian cotton leaf worm), sprayed cotton leaf discs; conditions: foliar, 72 h, application rate of 200 ppm, L1 larvae on cotton leaf discs, 3 days after infestation
Procedure, shortened: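 Cotton leaf discs on agar were sprayed with aqueous dilutions made from 10′000 ppm DMSO stocks, then infested after drying with five L1 larvae. Mortality, anti-feedant effect and growth inhibition were scored against untreated discs 3 days after infestation. Control means at least one of these exceeds the untreated sample.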

[5] = system: Myzus persicae (Green Peach Aphid); assay: Myzus persicae (green peach aphid), sprayed sunflower leaf discs; conditions: foliar, 144 h, application rate of 200 ppm, mixed ages on sunflower leaf discs, 6 days after infestation
Experimental: Example B4: Myzus persicae (Green Peach Aphid)
Sunflower leaf discs were placed on agar in a 24-well microtiter plate and sprayed with aqueous test solutions prepared from 10′000 ppm DMSO stock solutions. After drying, the leaf discs were infested with an aphid population of mixed ages. The samples were assessed for mortality 6 days after infestation.

[6] = system: Aedes aegypti (Yellow Fever Mosquito); assay: Activity against Aedes aegypti (yellow fever mosquito), dried deposits in tissue culture plates; conditions: application rate of 200 ppm in ethanol, adult females, after 48 h
[7] = system: Euschistus heros (Neotropical Brown Stink Bug); assay: Euschistus heros (neotropical brown stink bug), sprayed soybean leaf; conditions: 120 h, application rate of 200 ppm, N-2 nymphs on soybean leaf, 5 days after infestation
Experimental: Example B3: Euschistus heros (Neotropical Brown Stink Bug)
Soybean leaf on agar in 24-well microtiter plates were sprayed with aqueous test solutions prepared from 10′000 ppm DMSO stock solutions. After drying the leaf were infested with N-2 nymphs. The samples were assessed for mortality in comparison to untreated samples 5 days after infestation.

[8] = system: Diabrotica balteata (Corn Root Worm); assay: Diabrotica balteata (corn root worm), sprayed maize sprouts; conditions: 96 h, application rate of 200 ppm, L2 larvae on maize sprouts, 4 days after infestation
Experimental: Example B2: Diabrotica balteata (Corn Root Worm)
Maize sprouts, placed on an agar layer in 24-well microtiter plates were treated with aqueous test solutions prepared from 10′000 ppm DMSO stock solutions by spraying. After drying, the plates were infested with L2 larvae (6 to 10 per well). The samples were assessed for mortality and growth inhibition in comparison to untreated samples 4 days after infestation.

[9] = system: Plutella xylostella (Diamond Back Moth); assay: Plutella xylostella (diamond back moth), treated artificial diet; conditions: 120 h, application rate of 200 ppm, L2 larvae on artificial diet, 5 days after infestation, read-out: effect in at least one of the two categories (mortality or growth inhibition)
Procedure, shortened: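 Artificial diet treated with aqueous dilutions of DMSO stocks (10′000 ppm stock), dried, then infested with 10-15 L2 larvae per well. Mortality and growth inhibition assessed versus untreated controls 5 days after infestation.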

[10] = system: Tetranychus urticae (Two-Spotted Spider Mite); assay: Tetranychus urticae (two-spotted spider mite), sprayed bean leaf discs; conditions: foliar, 192 h, application rate of 200 ppm, mixed population (mobile stages) on bean leaf discs, 8 days after infestation
Experimental: Example B9: Tetranychus urticae (Two-Spotted Spider Mite)
Bean leaf discs on agar in 24-well microtiter plates were sprayed with aqueous test solutions prepared from 10′000 ppm DMSO stock solutions. After drying the leaf discs were infested with a mite population of mixed ages. The samples were assessed for mortality on mixed population (mobile stages) 8 days after infestation.

[11] = system: Bemisia tabaci (Cotton White Fly); assay: Bemisia tabaci (cotton white fly), sprayed cotton leaf discs; conditions: foliar, 144 h, application rate of 200 ppm, adult white flies on cotton leaf discs, 6 days after incubation
Experimental: Example B1: Bemisia tabaci (Cotton White Fly)
Cotton leaf discs were placed on agar in 24-well microtiter plates and sprayed with aqueous test solutions prepared from 10′000 ppm DMSO stock solutions. After drying the leaf discs were infested with adult white flies. The samples were checked for mortality 6 days after incubation.

[12] = system: Spodoptera littoralis (Egyqptian Cotton Leaf Worm); assay: Spodoptera littoralis (Egyptian cotton leaf worm), compound in agar taken up by lettuce roots; conditions: 144 h, test rate of 12.5 ppm, uptake by lettuce roots from agar, 6 days after infestation, read-out: effect in at least one of the three categories (mortality, anti-feedancy, or growth inhibition)
Procedure, shortened: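 Compound mixed into agar from a 10′000 ppm DMSO stock and taken up over 7 days by lettuce roots; cut leaves then infested with Spodoptera eggs. Mortality, anti-feedant effect and growth inhibition scored against untreated samples 6 days after infestation.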

CCS(=O)(=O)c1cc(-n2cnc(C(F)(F)F)n2)cnc1-c1nc2cc(C(F)(F)F)ncc2n1C [Compound P110]
≥ 80%: mortality at 200 ppm [1] | mortality at 200 ppm [2] | mortality at 24 ppm [3] | percent control (mortality, anti-feedant effect or growth inhibition) at 200 ppm [4] | mortality at 200 ppm [5] | pest or weed control at 200 ppm [6] | mortality at 200 ppm [7] | mortality at 200 ppm [8] | percent effect (mortality or growth inhibition) at 200 ppm [9] | mortality at 200 ppm [10]

CCS(=O)(=O)c1cc(-c2cc(C(F)(F)F)ccn2)cnc1-c1nc2cc(C(F)(F)F)ncc2n1C [Compound P21]
≥ 80%: mortality at 200 ppm [11] | mortality at 200 ppm [1] | mortality at 200 ppm [2] | percent control (mortality, anti-feedant effect or growth inhibition) at 200 ppm [4] | mortality at 200 ppm [5] | pest or weed control at 200 ppm [6] | mortality at 200 ppm [7] | percent control (mortality, anti-feedancy or growth inhibition) at 12.5 ppm [12] | mortality at 200 ppm [8] | percent effect (mortality or growth inhibition) at 200 ppm [9] | mortality at 200 ppm [10]

CCS(=O)(=O)c1cc(-c2ncc(F)cc2F)cnc1-c1nc2cc(C(F)(F)F)ncc2n1C [Compound P35]
≥ 80%: mortality at 200 ppm [11] | mortality at 200 ppm [1] | mortality at 24 ppm [3] | percent control (mortality, anti-feedant effect or growth inhibition) at 200 ppm [4] | mortality at 200 ppm [5] | percent control (mortality, anti-feedancy or growth inhibition) at 12.5 ppm [12] | mortality at 200 ppm [8] | percent effect (mortality or growth inhibition) at 200 ppm [9] | mortality at 200 ppm [10]

CCS(=O)(=O)c1cc(-c2ncccn2)cnc1-c1nc2cc(C(F)(F)F)ncc2n1C [Compound P27]
≥ 80%: mortality at 200 ppm [11] | mortality at 200 ppm [1] | mortality at 24 ppm [3] | percent control (mortality, anti-feedant effect or growth inhibition) at 200 ppm [4] | mortality at 200 ppm [5] | mortality at 200 ppm [7] | percent control (mortality, anti-feedancy or growth inhibition) at 12.5 ppm [12] | mortality at 200 ppm [8] | percent effect (mortality or growth inhibition) at 200 ppm [9] | mortality at 200 ppm [10]

CCS(=O)(=O)c1cc(-c2ncc(C(F)(F)F)cn2)cnc1-c1nc2cc(C(F)(F)F)ncc2n1C [Compound P25]
≥ 80%: mortality at 200 ppm [11] | mortality at 200 ppm [1] | mortality at 200 ppm [2] | percent control (mortality, anti-feedant effect or growth inhibition) at 200 ppm [4] | mortality at 200 ppm [5] | pest or weed control at 200 ppm [6] | mortality at 200 ppm [7] | percent control (mortality, anti-feedancy or growth inhibition) at 12.5 ppm [12] | mortality at 200 ppm [8] | percent effect (mortality or growth inhibition) at 200 ppm [9] | mortality at 200 ppm [10]
